Columns and labels:
EZH2 = EZH2 (Homo sapiens, UniProt Q15910); test: SPR; format: binding
PRMT5:MEP50 complex = PRMT5:MEP50 complex (Homo sapiens, UniProt O14744); test: SPR; format: binding
Chain of PRMT5:MEP50 complex (O14744 2-637): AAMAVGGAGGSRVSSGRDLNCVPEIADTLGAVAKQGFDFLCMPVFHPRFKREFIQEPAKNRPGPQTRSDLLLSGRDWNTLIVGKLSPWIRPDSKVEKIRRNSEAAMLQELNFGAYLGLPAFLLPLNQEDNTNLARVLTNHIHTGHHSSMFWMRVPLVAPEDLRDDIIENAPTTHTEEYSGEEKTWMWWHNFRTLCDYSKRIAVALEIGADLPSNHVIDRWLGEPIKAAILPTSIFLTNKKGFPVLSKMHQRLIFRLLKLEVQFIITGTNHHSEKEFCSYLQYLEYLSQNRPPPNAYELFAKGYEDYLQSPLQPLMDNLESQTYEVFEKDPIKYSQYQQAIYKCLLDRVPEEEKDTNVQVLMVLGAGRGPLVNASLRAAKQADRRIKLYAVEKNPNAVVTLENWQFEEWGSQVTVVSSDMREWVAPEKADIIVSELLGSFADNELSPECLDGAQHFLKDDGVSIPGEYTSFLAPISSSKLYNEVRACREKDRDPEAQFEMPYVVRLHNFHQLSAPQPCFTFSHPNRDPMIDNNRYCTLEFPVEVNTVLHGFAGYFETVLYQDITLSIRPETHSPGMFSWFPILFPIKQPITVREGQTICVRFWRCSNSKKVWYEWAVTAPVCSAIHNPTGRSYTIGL
Chain of PRMT5:MEP50 complex (Q9BQA1 whole entry partner): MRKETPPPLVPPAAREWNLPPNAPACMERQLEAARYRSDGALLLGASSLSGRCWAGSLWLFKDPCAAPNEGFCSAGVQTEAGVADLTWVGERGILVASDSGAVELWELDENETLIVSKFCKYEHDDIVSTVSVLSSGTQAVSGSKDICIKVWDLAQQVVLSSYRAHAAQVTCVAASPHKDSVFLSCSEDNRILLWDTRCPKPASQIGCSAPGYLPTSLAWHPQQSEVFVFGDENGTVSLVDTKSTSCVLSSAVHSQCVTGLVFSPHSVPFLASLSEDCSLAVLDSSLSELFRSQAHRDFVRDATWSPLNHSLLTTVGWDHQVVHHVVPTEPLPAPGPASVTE

Chain of EZH2 (Q15910 whole entry): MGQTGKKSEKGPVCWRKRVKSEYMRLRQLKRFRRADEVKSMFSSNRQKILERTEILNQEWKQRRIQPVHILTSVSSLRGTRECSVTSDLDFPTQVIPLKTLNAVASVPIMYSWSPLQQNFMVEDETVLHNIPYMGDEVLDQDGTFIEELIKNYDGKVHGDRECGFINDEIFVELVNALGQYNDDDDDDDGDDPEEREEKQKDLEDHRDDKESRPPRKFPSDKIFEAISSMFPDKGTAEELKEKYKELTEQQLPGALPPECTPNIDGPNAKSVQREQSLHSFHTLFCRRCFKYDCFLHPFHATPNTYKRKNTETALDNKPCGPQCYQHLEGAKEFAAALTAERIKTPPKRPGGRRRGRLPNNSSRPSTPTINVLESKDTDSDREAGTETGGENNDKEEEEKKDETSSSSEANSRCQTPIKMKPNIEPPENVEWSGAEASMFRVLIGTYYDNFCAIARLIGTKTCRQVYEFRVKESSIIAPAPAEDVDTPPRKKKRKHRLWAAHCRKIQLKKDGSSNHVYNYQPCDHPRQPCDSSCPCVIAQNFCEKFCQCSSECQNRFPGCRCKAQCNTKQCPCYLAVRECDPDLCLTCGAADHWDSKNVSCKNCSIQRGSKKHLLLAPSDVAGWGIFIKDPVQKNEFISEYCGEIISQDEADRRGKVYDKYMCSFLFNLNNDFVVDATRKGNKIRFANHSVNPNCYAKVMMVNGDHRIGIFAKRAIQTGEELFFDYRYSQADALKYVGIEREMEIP

Kd (EZH2): 3.28 µM
Kd (PRMT5:MEP50 complex): 65.4 µM
SMILES: O=c1oc2c(O)c(O)cc3c(=O)oc4c(O)c(O)cc1c4c23 [Ellagic acid]
